PMC10607100, “Anticancer and Antiphytopathogenic Activity of Fluorinated Isatins and Their Water-Soluble Hydrazone Derivatives” (International Journal of Molecular Sciences, 2023)
Read-outs that look alike come from different tables or passages of the source.

Assays:
[1] = tested on: Xanthomonas campestris B-610; test: Agar-well diffusion, bactericidal activity; assay type: cell-based; settings: Xanthomonas campestris
How it was run: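 Agar-well diffusion on GYCa agar (pH 7.2–7.4) seeded with bacterial suspension; 150 μL compound solution placed in 6-mm wells. Inhibition zone width measured after 36–40 h incubation.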

[2] = tested on: Pseudomonas fluorescens EL-2.1; test: Agar-well diffusion, bactericidal activity; assay type: cell-based; settings: Pseudomonas fluorescens, EL2.1, 2 mM/L
How it was run: (§1)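 Bacteria spread on agar (BP medium; GYCa for X. campestris; pH 7.2–7.4) with 6-mm wells, each receiving 150 μL compound solution. Cultures grown at 28 °C; growth-inhibition zone width measured after 36–40 h.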

[3] = tested on: Pectobacterium atrosepticum 1043; test: Agar-well diffusion, bactericidal activity; assay type: cell-based; settings: Pectobacterium atrosepticum, 1043; 2 mM/L; average of 3 experiments; read-out: width of the inhibition zone (mm), P. atrosepticum
How it was run: as §1

Micrococcus luteus B-109 = test: Agar-well diffusion, bactericidal activity; assay type: cell-based; settings: Micrococcus luteus
How it was run: as §1

[4] = tested on: Pectobacterium carotovorum subsp. carotovorum MI; test: Agar-well diffusion, bactericidal activity; assay type: cell-based; settings: Pectobacterium carotovorum, 2 mM/L
How it was run: as §1

[5] = tested on: Phytophthora cactorum VKM F-985; test: Mycelial radial growth inhibition; assay type: cell-based; settings: for inhibition of growth at 1 µM: 1 nmol/mL; for inhibition of growth at 1 µM / inhibition of growth at 3 µM / inhibition of growth at 7 µM / inhibition of growth / inhibition of growth at 40 µM: read-out: Inhibition value, I (%); for inhibition of growth at 3 µM: 3 nmol/mL; for inhibition of growth at 7 µM: 7 nmol/mL; for inhibition of growth: 27 nmol/mL; for inhibition of growth at 40 µM: 40 nmol/mL
How it was run: (§2)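 Compounds mixed into molten GPY agar at various concentrations; centre inoculated with a 5-mm mycelial plug from 10-day cultures and incubated at 27 °C. Colony diameter compared with untreated control until control plate was covered (usually 12 days); ≥4 replicates in two experiments.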

[6] = tested on: Fusarium oxysporum IBPPM 543; test: Mycelial radial growth inhibition; assay type: cell-based; settings: for inhibition of growth at 1 µM: 1 nmol/mL; for inhibition of growth at 1 µM / inhibition of growth at 3 µM / inhibition of growth at 20 µM / inhibition of growth at 30 µM: read-out: Inhibition value, I (%); for inhibition of growth at 3 µM: 3 nmol/mL; for inhibition of growth at 20 µM: 20 nmol/mL; for inhibition of growth at 30 µM: 30 nmol/mL
How it was run: as §2

[7] = tested on: five representative phytopathogens; test: Agar-well diffusion, bactericidal activity over the panel of phytopathogens; assay type: cell-based; settings: 36 h, 2 mM solutions; dependent on the test system used; read-out: inhibition zone width (mm), range over the test systems
How it was run: as §1

[8] = Table S3, read-out: Inhibition zone width (mm), not less
[9] = Phytophthora cactorum, 72 h, age of the fungus 3 days
[10] = Phytophthora cactorum, 120 h, age of the fungus 5 days
[11] = Phytophthora cactorum, 168 h, age of the fungus 7 days
[12] = Phytophthora cactorum, 216 h, age of the fungus 9 days
[13] = Fusarium oxysporum, IBPPM543, 72 h, age of the fungus 3 days
[14] = Fusarium oxysporum, IBPPM543, 120 h, age of the fungus 5 days
[15] = Fusarium oxysporum, IBPPM543, 168 h, age of the fungus 7 days
[16] = Fusarium oxysporum, IBPPM543, 216 h, age of the fungus 9 days

Cc1ccc2c(c1)C(=NNC(=O)C[n+]1ccccc1)C(=O)N2Cc1cccc(C(F)(F)F)c1.[Cl-] [Compound 5e, 1-(2-(2-(5-Methyl-2-oxo-1-(3-(trifluoromethyl)benzyl)indolin-3-ylidene)hydrazinyl)-2-oxoethyl)pyridin-1-ium chloride]
zone of inhibition at 2000 µM ([1]; B610, 2 mM/L, average of 3 experiments, read-out: width of the inhibition zone (mm), X. campestris): 5 mm
zone of inhibition at 2000 µM ([1]; B610, Table S3, 2 mM/L, read-out: Inhibition zone width (mm), not less): ≥ 5 mm
melting point: 202 to 203 °C
zone of inhibition at 2000 µM ([2]; average of 3 experiments, read-out: width of the inhibition zone (mm), Ps. fluorescens): 7 mm
zone of inhibition at 2000 µM [2, 8]: ≥ 7 mm
zone of inhibition at 2000 µM [3]: 4 mm
zone of inhibition at 2000 µM (Micrococcus luteus B-109; B109, 2 mM/L, average of 3 experiments, read-out: width of the inhibition zone (mm), M. luteus): 6 mm
zone of inhibition at 2000 µM (Micrococcus luteus B-109; B109, Table S3, 2 mM/L, read-out: Inhibition zone width (mm), not less): ≥ 6 mm
zone of inhibition at 2000 µM ([4]; average of 3 experiments, read-out: width of the inhibition zone (mm), P. carotovorum subsp. carotovorum): 5 mm
zone of inhibition at 2000 µM [4, 8]: ≥ 5 mm
antagonistic effect superior to that of N-cetylpyridinium chloride ([5]; 5 days of growth): 1.3 times
antagonistic effect superior to that of fludioxonil ([5]; 5 days of growth): 1.1 times
inhibition of growth at 1 µM [5, 9]: 20%
inhibition of growth at 3 µM [5, 9]: 23%
inhibition of growth at 7 µM [5, 9]: 25%
inhibition of growth [5, 9]: 28%
inhibition of growth at 40 µM [5, 9]: 35%
EC50 ([5]; Phytophthora cactorum, 120 h, day 5, read-out: EC50, µg/mL at Day 5, P. cactorum): 27.4 µg/mL
inhibition of growth at 1 µM [5, 10]: 16%
inhibition of growth at 3 µM [5, 10]: 19%
inhibition of growth at 7 µM [5, 10]: 30%
inhibition of growth [5, 10]: 35%
inhibition of growth at 40 µM [5, 10]: 38%
inhibition of growth at 1 µM [5, 11]: 15%
inhibition of growth at 3 µM [5, 11]: 17%
inhibition of growth at 7 µM [5, 11]: 23%
inhibition of growth [5, 11]: 26%
inhibition of growth at 40 µM [5, 11]: 29%
inhibition of growth at 1 µM [5, 12]: 14%
inhibition of growth at 3 µM [5, 12]: 17%
inhibition of growth at 7 µM [5, 12]: 19%
inhibition of growth [5, 12]: 21%
inhibition of growth at 40 µM [5, 12]: 26%
inhibition of growth at 1 µM [6, 13]: 33%
inhibition of growth at 3 µM [6, 13]: 66%
inhibition of growth at 20 µM [6, 13]: 69%
inhibition of growth at 30 µM [6, 13]: 75%
EC50 ([6]; Fusarium oxysporum, IBPPM543, 120 h, day 5, read-out: EC50, µg/mL at Day 5, F. oxysporum): 0.6 µg/mL
inhibition of growth at 1 µM [6, 14]: 48%
inhibition of growth at 3 µM [6, 14]: 67%
inhibition of growth at 20 µM [6, 14]: 72%
inhibition of growth at 30 µM [6, 14]: 76%
inhibition of growth at 1 µM [6, 15]: 33%
inhibition of growth at 3 µM [6, 15]: 65%
inhibition of growth at 20 µM [6, 15]: 69%
inhibition of growth at 30 µM [6, 15]: 72%
inhibition of growth at 1 µM [6, 16]: 18%
inhibition of growth at 3 µM [6, 16]: 64%
inhibition of growth at 20 µM [6, 16]: 67%
inhibition of growth at 30 µM [6, 16]: 71%
IC50 ([6]; Fusarium oxysporum, IBPPM543, read-out: IC50, antifungal activity against F. oxysporum): 0.6 µg/mL
fungicidal action stronger than N-cetylpyridinium chloride ([6]; same culture age (5 days)): 235 times
inhibition of Fusarium growth greater than fludioxonil ([6]; same culture age (5 days)): 139 times
zone of inhibition at 2000 µM [7]: 4 to 7 mm
